Test results from BindingDB's records for doi:10.1016/j.ejmech.2019.111726 (Jinan University, 2019).

Columns and labels:
[1] = Reversal of P-gp mediated multidrug resistance in human HepG2/DOX cells assessed as doxorubicin IC50 at 10 uM measured within 48 hrs by MTT assay (Rvb = 69.3 +/- 3.9 uM)
[2] = Reversal of P-gp mediated multidrug resistance in human MCF7/ADM cells assessed as doxorubicin IC50 at 10 uM measured within 48 hrs by MTT assay (Rvb = 151.7 +/- 5 uM)
[3] = Reversal of P-gp mediated multidrug resistance in human MCF7/ADM cells assessed as doxorubicin IC50 at 5 uM measured within 48 hrs by MTT assay (Rvb = 151.7 +/- 5 uM)
[4] = Reversal of P-gp mediated multidrug resistance in human HepG2/DOX cells assessed as doxorubicin IC50 at 5 uM measured within 48 hrs by MTT assay (Rvb = 69.3 +/- 3.9 uM)

IC50 [1]: 300 nM
IC50 [2]: 1200 nM
IC50 [3]: 14600 nM
IC50 [4]: 1400 nM
Compound: CCCN(C(=O)CCCCCCC(=O)N(CCC)[C@H]1CC2=CC(=O)O[C@]23C[C@H]1N1CCCC[C@H]13)[C@H]1CC2=CC(=O)O[C@]23C[C@H]1N1CCCC[C@H]13
